We go through 8 molecules from paper PMC4384300, “Evaluation of the in vitro trypanocidal activity of methylated flavonoid constituents of Vitex simplicifolia leaves” (BMC Complementary and Alternative Medicine, 2015).

Assay [1] concerns Trypanosoma brucei rhodesiense STIB 900 bloodstream forms. Nature of the assay: In vitro trypanocidal activity (Alamar Blue assay, 72 h). Format: cell-based. Particulars: for IC50: Trypanosoma brucei, 72 h, read-out: T.b.rhodesiense IC50; for SI: selectivity index (IC50 of L6 cells/ IC50 of T.b.rhodesiense): L6 cells versus T. b. rhodesiense. As for the experimental part:
Minimum essential medium (50 μl) supplemented according to a standard method, with 2-mercaptoethanol and 15% heat inactivated horse serum was added to each well of a 96-well microtiter plate. Serial three-fold compound dilutions were prepared covering a range from 90 to 0.123 μg/ml. Then 10^4 bloodstream forms of Trypanosoma brucei rhodesiense STIB 900 (a clone of a population isolated in 1982 from a patient in Tanzania) in 50 μl culture medium were added to each well and the plate incubated at 37°C under a 5% CO2 atmosphere for 72 h. Ten microlitres of Alamar Blue (12.5 mg resazurin dissolved in 100 ml distilled water) were then added to each well and incubation continued for a further 2–4 h. The plate was then read in a Spectramax Gemini XS microplate fluorometer (Molecular Devices Cooperation, Sunnyvale, CA, USA) using an excitation wavelength of 536 nm and emission wavelength of 588 nm. Fluorescence development was measured and expressed as percentage of the control. Data were transferred into the graphic programme Softmax Pro (Molecular Devices) which calculated IC50 values. Melarsoprol was used as standard drug.
For orientation: The colour change of resazurin is a common sign of viable cells or microbes.

Another assay relates to L6 cells. Nature of the assay: Cytotoxicity in rat skeletal myoblast cell line (L6 cells). Format: cell-based. The procedure: Cytotoxicity was determined using a rat skeletal myoblast cell line (L6 cells). The culture medium was RPMI 1640 supplemented with L-glutamine 2 mM, HEPES 5.95 g/l, NaHCO3 2 g/l and 10% foetal bovine serum. Podophyllotoxin (Sigma-Aldrich) was used as the reference drug. The assay was performed following the antitrypanosomal assay protocol as described above. The IC50 values were calculated from the sigmoidal growth inhibition curves using Softmax Pro software (Molecular Devices Corp.). Tests were done in three independent experiments in duplicate.

The mark [2] stands for this setting: T. b. rhodesiense STIB 900 bloodstream forms, 72 h incubation, Alamar Blue.
The mark [3] stands for this setting: rat skeletal myoblast L6 cells, cytotoxicity, read-out: L6 Cells IC50.

≈ marks a conversion by molar mass, not a printed value. Like-named read-outs stand apart in the source and are kept apart here.

The IC50 is the concentration needed to halve the response being measured.

As for “2-(3′,4′-dimethoxyphenyl)-7-hydroxychromen-4-one [Compound 7]”, in assay [1] (setting [2]), the “T.b.rhodesiense IC50” value stood at 10.8 µg/mL. In the assay on L6 cells (rat skeletal myoblast L6 cells, cytotoxicity), the “L6 Cells IC50” value worked out at 1.58 µg/mL.

In the case of `COc1cc(-c2oc3cc(O)cc(O)c3c(=O)c2OC)ccc1O` [Compound 2, 2-(5′-methoxyphenyl) 4′,5,7-trihydroxy-3-methoxychromen-4-one], the IC50 is 12.3 µg/mL (≈ 37.2 µM) in assay [1] (setting [2]) and 6.64 µg/mL (≈ 20.1 µM) in the assay with L6 cells (setting [3]).

For the molecule `COc1cc2oc(-c3ccc(O)cc3)c(OC)c(=O)c2c(O)c1OC` [Compound 3, Penduletin], the “T.b.rhodesiense IC50” value in assay [1] (setting [2]) worked out at 13.8 µg/mL. Besides, the IC50 in the assay on L6 cells (setting [3]) came out at 14 µg/mL (≈ 40.7 µM).

As to `COc1cc(O)c2c(=O)c(OC)c(-c3ccc(O)cc3)oc2c1` [Compound 4, 2-(4′-hydroxyphenyl)-5-hydroxy 3,7-dimethoxy chromen-4-one], in assay [1], the “SI: selectivity index (IC50 of L6 cells/ IC50 of T.b.rhodesiense)” value is reported as 1.4. Also, the values for the half-inhibitory concentration (IC50) (in assay [1] (setting [2]); in the assay with L6 cells (setting [3])) were 19.4 µg/mL (≈ 61.7 µM) and 28.2 µg/mL (≈ 89.7 µM), respectively.

Turning to `O=c1c(O)c(-c2ccc(O)cc2)oc2cc(O)cc(O)c12` [Compound 5, 2-(4-hydroxyphenyl)-3,5,7-trihydroxy chromen-4-one], the IC50 in assay [1] (setting [2]) was 23.7 µg/mL (≈ 82.8 µM); in the assay on L6 cells (setting [3]), 100 µg/mL (≈ 349 µM).

Consider `COc1ccc(-c2oc3cc(OC)c(OC)c(O)c3c(=O)c2OC)cc1OC` [Compound 6, Artemetin], for which the “SI: selectivity index (IC50 of L6 cells/ IC50 of T.b.rhodesiense)” value in assay [1] stood at 9.8. In addition, the values for the IC50 (in assay [1] (setting [2]); in the assay with L6 cells (setting [3])) were 4.7 µg/mL (≈ 12.1 µM) and 46.2 µg/mL (≈ 119 µM), respectively.

`Nc1nc(N)nc(Nc2ccc([As]3SCC(CO)S3)cc2)n1` (stereo not shown) [Melarsoprol, reference compound]: the IC50 in assay [1] turned out to be 0.002 µg/mL.

For `COc1cc([C@@H]2c3cc4c(cc3[C@H](O)[C@H]3COC(=O)[C@H]23)OCO4)cc(OC)c1OC` [Podophyllotoxin, reference compound], in the assay with L6 cells (Rattus norvegicus, L6, read-out: L6 Cells IC50), the IC50 turned out to be 0.005 µg/mL (≈ 0.0121 µM).
